The text below walks through data of US7919247B2, “Simultaneous quantification of nucleic acids in diseased cells” (Pharmasset, Inc., priority 2000, dated 2011).

One may read the EC50 as the midpoint of the concentration-response curve. The term EC90 denotes the point of the concentration-response curve where the effect stands at 90%. Broadly, the CC50 is the concentration that lowers cell viability or growth by half.

Where two headings read alike, the source gives them in different places. Where only a bound is given, the exact number is not on record here.

Data set [1] relates to HIV-1 xxBRU (sensitive strain). The experiment in a line: endogenous viral RT assay of culture supernatant, HIV-1 infected human PBMC.
Data set [2] deals with HIV-1 xxBRU (sensitive strain). The experiment in a line: real-time RT-PCR HIV-1 viral load in culture supernatant, infected human PBMC. For orientation: Quantitative PCR measures a nucleic acid by following its amplification.
Data set [3] in a line: MTS/MTT dye toxicity assay. Type of data set: cell-based, human. The conditions noted are these: human. How it is done: (§1) After a three day-incubation, or 4 for CEM, or 5 days for PBMC, cell viability and mitochondrial activity were measured in a colorimetric assay using the MTS- or MTT dye (Promega, Wis.).
(§2) The cytotoxicity testing as performed here is a standard technique. Briefly, cells are seeded in 96-well plates at various concentrations (dependent on cell type, duration of assay), typically at 5×10^3 cells per well, in the presence of increasing concentrations of the test compound (0, 1, 3, 10, 33, and 100 μM). After a three day-incubation, cell viability and mitochondrial activity are measured by adding the MTS-dye (Promega), followed by a 3 hours incubation. Afterwards the plates containing the dye are read at 490 nm. Such methodologies are well described and available from the manufacturer (Promega).
For orientation: Tetrazolium dyes change colour on reduction, which living cells bring about.

Data set [4] can be described thus: MTS/MTT dye toxicity assay. Type of data set: cell-based. Here is the method:
as §1, §2

The target of data set [5] is T1, mitochondrial DNA polymerase γ (Homo sapiens, UniProt P54098).
T1 sequence (P54098 1-1239): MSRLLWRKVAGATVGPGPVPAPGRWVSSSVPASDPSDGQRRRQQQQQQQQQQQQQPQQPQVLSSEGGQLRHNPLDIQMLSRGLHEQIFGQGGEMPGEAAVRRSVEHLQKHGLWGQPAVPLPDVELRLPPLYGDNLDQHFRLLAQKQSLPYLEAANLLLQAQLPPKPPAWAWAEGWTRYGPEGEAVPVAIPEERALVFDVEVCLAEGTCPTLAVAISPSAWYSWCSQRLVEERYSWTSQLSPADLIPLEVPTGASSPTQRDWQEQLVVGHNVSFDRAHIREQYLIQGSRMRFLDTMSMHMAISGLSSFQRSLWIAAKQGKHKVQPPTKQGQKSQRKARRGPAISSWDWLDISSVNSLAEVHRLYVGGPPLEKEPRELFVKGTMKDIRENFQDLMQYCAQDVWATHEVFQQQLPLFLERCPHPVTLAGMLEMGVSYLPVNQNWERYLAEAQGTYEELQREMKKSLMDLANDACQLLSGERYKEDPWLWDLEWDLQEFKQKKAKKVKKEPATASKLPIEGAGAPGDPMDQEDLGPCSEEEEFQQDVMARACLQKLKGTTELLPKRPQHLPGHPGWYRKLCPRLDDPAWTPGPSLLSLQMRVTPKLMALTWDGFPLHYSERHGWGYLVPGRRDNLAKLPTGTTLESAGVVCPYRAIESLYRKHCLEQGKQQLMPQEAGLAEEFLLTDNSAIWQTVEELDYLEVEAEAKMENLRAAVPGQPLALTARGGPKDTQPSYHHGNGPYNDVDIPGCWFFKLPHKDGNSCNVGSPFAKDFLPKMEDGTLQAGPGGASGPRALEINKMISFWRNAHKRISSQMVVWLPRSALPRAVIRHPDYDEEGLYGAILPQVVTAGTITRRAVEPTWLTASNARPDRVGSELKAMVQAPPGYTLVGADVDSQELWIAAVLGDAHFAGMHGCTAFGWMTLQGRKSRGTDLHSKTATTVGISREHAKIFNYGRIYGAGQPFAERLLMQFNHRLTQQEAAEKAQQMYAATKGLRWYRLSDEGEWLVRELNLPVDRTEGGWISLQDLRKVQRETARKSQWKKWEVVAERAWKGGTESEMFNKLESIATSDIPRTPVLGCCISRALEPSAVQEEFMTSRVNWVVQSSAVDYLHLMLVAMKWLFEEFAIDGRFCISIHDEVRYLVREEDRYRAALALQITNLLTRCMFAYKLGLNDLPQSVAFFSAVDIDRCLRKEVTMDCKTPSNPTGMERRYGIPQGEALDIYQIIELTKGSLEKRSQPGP
T1 sequence (Q9UHN1 26-485 partner limits assumed): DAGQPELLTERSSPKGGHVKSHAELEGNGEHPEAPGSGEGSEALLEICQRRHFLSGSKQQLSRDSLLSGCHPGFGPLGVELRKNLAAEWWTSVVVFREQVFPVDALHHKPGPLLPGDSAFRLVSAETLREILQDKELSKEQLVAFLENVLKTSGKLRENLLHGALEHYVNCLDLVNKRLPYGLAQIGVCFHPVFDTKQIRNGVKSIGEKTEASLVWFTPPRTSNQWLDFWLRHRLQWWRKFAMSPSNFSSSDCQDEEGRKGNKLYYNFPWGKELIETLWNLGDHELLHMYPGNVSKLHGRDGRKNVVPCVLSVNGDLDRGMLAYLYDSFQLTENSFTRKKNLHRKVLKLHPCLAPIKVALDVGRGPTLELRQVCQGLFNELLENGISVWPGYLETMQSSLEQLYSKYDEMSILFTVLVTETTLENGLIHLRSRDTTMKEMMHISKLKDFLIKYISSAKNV
Kind of data set: real-time PCR mitochondrial DNA polymerase toxicity (COXII vs β-actin DNA, comparative Ct) in HepG2 cells. The conditions noted are these: 7-day incubation with up to 10 μM.

A further data set concerns PBMC. The experiment in a line: MTS/MTT dye toxicity assay. Format: cell-based, human. The conditions noted are these: human PBMC, evaluated up to 100 μM. How it is done:
as §1, §2

In a further data set the test system is CEM. Kind of data set: MTS/MTT dye toxicity assay. Type of data set: cell-based. The conditions noted are these: CEM cells, evaluated up to 100 μM. Here is the method:
as §1, §2

The next data set deals with VERO. Kind of data set: MTS/MTT dye toxicity assay. Format: cell-based. The conditions noted are these: Vero cells, evaluated up to 100 μM. How it is done:
as §1, §2

Data set [6] concerns the target T2, mitochondrial RNA polymerase (Homo sapiens, UniProt O00411).
T2 construct: endogenous in cells; HepG2 inferred from the preceding paragraphs
The experiment in a line: quantitative RT-PCR of mitochondrial COXII RNA calibrated against nuclear RNA transcripts. Type of data set: cell-based. The conditions noted are these: normalized for no treatment. How it is done:
Similar results were also obtained if this technology was carried out in a quantitative reverse-transcriptase-PCR protocol. This approach measures the potential inhibition of antiviral compounds for the mitochondrial RNA polymerase, in comparison with the nuclear RNA polymerases I (generating mainly rRNA transcripts), RNA polymerase II (generating mainly mRNA transcripts), or of lesser importance, RNA polymerase III (generating mainly tRNA transcripts). To obtain such results, amplification of either rRNA, or -actin mRNA as calibrator is required.

For data set [7], the target named is T1, mitochondrial DNA polymerase γ.
Setting [8] is: xxBRU, RT assay, human PBMC, 5 days.
Setting [9] is: xxBRU, real-time RT-PCR, human PBMC, 5 days.
The mark [10] stands for this setting: Human immunodeficiency virus 1, PBMC, 120 h.

T2 sequence (O00411 42-1230): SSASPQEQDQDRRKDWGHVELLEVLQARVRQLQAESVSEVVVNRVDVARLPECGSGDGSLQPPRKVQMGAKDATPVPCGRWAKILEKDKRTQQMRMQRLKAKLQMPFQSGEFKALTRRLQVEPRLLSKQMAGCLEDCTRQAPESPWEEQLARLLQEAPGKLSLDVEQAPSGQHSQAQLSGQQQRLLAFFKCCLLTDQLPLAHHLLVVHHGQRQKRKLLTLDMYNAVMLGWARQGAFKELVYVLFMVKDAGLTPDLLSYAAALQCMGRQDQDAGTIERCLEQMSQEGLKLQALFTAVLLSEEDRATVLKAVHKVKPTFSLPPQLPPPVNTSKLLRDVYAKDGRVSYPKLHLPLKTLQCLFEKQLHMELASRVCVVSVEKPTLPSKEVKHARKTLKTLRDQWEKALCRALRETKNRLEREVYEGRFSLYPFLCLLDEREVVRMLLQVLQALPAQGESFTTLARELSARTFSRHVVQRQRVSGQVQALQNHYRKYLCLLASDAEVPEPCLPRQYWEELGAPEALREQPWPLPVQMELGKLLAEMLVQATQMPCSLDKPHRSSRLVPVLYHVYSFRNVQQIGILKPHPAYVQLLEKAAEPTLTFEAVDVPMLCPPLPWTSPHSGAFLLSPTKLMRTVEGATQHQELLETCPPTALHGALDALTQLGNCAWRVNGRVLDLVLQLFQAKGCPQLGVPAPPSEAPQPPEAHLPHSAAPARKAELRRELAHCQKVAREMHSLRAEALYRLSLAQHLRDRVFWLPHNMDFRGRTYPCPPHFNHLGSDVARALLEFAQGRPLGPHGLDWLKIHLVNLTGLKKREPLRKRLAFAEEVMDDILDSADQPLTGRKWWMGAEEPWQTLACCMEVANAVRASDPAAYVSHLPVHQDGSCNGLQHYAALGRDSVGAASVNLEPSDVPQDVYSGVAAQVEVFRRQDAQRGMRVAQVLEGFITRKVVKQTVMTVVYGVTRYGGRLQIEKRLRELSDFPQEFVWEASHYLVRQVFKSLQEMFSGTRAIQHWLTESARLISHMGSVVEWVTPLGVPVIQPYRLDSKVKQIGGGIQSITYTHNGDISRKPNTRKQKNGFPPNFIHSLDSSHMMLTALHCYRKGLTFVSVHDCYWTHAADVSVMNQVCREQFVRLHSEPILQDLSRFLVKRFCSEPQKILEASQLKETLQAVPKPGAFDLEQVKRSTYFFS

`Nc1ccn([C@@H]2CS[C@H](CO)O2)c(=O)n1` [3TC]: in [1] (setting [8]), the EC50 is 18 nM and the EC90 is 77 nM. In data set [2] (setting [9]), this molecule returned an EC50 of 30 nM and an EC90 of 120 nM.
On to `Nc1ccn([C@@H]2S[C@H](CO)C=C2F)c(=O)n1` [β-D-d4-2′F-(4-S-pentenyl)-C], for which the results for the EC50 in data set [1] (setting [10]) and in [2] (setting [10]) were 5980 nM and 2680 nM, respectively. For the same molecule, the EC90 in data set [1] (setting [10]) stood at 23200 nM; in data set [2] (setting [10]) it was 18100 nM. Besides, in data set [3], the CC50 at 5 days is more than 100000 nM. Further, the CC50 at 3 days in data set [4] (African green monkey) and in data set [4] (human) was more than 100000 nM in each case. The same molecule displayed a CC50 at 4 days in [4] (human) of more than 100000 nM.
Regarding `Cc1cn([C@H]2C=C[C@@H](CO)O2)c(=O)[nH]c1=O` [d4T], in data set [1] (setting [8]), it took 3.4 nM to reach a half-maximal effect (EC50) and it took 130 nM to reach the 90% level (EC90). Besides, in [2] (setting [9]), the EC50 was 2.7 nM and the EC90 was 120 nM.
As to `Nc1ccn([C@H]2S[C@@H](CO)C=C2F)c(=O)n1` [β-L-d4-2′F-(4-S-pentenyl)-C], the EC50 in data set [1] (setting [10]) stood at 1610 nM; in [2] (setting [10]), 400 nM. Also, the EC90 in data set [1] (setting [10]) turned out to be 11600 nM; in data set [2] (setting [10]), 2680 nM. Besides, in data set [5], the “mitochondrial toxicity (γ-DNA polymerase inhibition)” value is reported as “no toxicity”. The CC50 at 5 days in data set [3] (PBMC, read-out: CC50) is more than 100000 nM. For the same molecule, the “cytotoxicity in MTS-dye assay” value with PBMC, in the data set on CEM and with VERO was “no cytotoxicity was observed” throughout. For the same molecule, the CC50 at 3 days in [4] (African green monkey, VERO, read-out: CC50) was more than 100000 nM; in data set [4] (human, HepG2, read-out: CC50), more than 100000 nM. Besides, the CC50 at 4 days in data set [4] (human, CEM, read-out: CC50) was more than 100000 nM.
Consider (−)-FTC [(-) FTC], for which the values for the EC50 in data set [1] (setting [8]) and in [2] (setting [9]) were 11 nM and 5.9 nM, respectively. In addition, the EC90 in [1] (setting [8]) was found to be 50 nM; in data set [2] (setting [9]), 88 nM. The “mitochondrial (COXII) RNA levels” value in data set [6] is on record as “did not affect the COXII RNA levels”. In addition, the “mitochondrial DNA reduction as compared to the no-drug control” value in data set [7] was “does not induce any significant mitochondrial DNA reduction”.
On to `Cc1cn([C@H]2C[C@H](N=[N+]=[N-])[C@@H](CO)O2)c(=O)[nH]c1=O` [AZT], for which the EC50 in data set [1] (setting [8]) is 3.4 nM; in [2] (setting [9]), 3.9 nM. In addition, the EC90 in data set [1] (setting [8]) stood at 34 nM; in data set [2] (setting [9]) it was 36 nM.
Turning to `Nc1ccn([C@H]2CC[C@@H](CO)O2)c(=O)n1` [D-DDC], the “mitochondrial (COXII) RNA levels” value in [6] is reported as “significant reduction in mitochondrial RNA levels”. Also, in [7], the “mitochondrial DNA reduction as compared to the no-drug control” value is listed as “dose-dependent reduction in mitochondrial DNA synthesis”.
